Assay results from ChEMBL document CHEMBL1159186 (Bioorg Med Chem Lett, 1996).

Experiments:
[1] = molecular target: Epidermal growth factor receptor (Homo sapiens, UniProt P00533); assay: Inhibition of tyrosine kinase Epidermal growth factor receptor
[2] = molecular target: cAMP-dependent protein kinase (PKA) (Homo sapiens, UniProt P22694+P17612+P22612); assay: Inhibition of serine/threonine kinase(PKA); format: protein assay, Oryctolagus cuniculus
[3] = molecular target: Protein kinase C alpha type (Homo sapiens, UniProt P17252); assay: Inhibition of serine/threonine kinase(PKC-alpha); parameters: species or system Sus scrofa
[4] = molecular target: Platelet-derived growth factor receptor (Homo sapiens, UniProt P09619+P16234); assay: Inhibition of tyrosine kinase(PDGF-R); format: protein-complex assay
[5] = molecular target: Protein kinase C delta type (Homo sapiens, UniProt Q05655); assay: Inhibition of serine/threonine kinase(PKC-delta); parameters: species or system Sus scrofa
[6] = molecular target: Proto-oncogene tyrosine-protein kinase Src (Homo sapiens, UniProt P12931); assay: Inhibition of tyrosine kinase(c-Src)
Sequence of Proto-oncogene tyrosine-protein kinase Src (P12931 2-536 limits assumed): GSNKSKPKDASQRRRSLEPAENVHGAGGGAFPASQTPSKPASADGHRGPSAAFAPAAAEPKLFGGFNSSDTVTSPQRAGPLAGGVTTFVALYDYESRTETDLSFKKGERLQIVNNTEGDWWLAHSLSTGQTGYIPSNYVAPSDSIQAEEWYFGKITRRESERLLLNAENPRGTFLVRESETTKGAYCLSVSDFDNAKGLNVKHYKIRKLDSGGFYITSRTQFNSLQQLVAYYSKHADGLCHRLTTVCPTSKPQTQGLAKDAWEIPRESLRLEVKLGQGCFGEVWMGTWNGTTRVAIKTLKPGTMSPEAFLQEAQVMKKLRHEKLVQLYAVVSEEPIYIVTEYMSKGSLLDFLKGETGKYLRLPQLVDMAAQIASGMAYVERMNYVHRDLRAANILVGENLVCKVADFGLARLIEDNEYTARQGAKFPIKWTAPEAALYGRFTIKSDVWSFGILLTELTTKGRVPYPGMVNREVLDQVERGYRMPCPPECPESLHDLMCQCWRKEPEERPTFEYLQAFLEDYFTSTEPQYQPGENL

Sequence of Protein kinase C delta type (Q05655 whole entry): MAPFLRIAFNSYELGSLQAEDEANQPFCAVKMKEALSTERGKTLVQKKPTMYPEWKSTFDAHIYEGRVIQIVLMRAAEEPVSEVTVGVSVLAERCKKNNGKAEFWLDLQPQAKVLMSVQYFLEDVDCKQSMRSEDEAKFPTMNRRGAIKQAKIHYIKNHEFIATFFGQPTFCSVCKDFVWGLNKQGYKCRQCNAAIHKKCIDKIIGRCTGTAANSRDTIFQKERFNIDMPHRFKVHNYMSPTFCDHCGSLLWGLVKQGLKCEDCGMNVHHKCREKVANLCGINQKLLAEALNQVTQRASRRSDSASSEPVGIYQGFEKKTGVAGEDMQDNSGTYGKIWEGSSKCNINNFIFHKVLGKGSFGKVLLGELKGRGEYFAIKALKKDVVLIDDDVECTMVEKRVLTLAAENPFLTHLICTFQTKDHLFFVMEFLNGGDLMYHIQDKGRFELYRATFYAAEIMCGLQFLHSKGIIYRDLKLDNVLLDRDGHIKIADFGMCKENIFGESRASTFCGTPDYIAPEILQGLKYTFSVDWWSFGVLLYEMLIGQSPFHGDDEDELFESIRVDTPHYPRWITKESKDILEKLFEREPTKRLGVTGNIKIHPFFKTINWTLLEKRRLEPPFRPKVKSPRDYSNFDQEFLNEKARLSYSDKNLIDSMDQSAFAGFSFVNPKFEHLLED
Sequence of Epidermal growth factor receptor (P00533 whole entry): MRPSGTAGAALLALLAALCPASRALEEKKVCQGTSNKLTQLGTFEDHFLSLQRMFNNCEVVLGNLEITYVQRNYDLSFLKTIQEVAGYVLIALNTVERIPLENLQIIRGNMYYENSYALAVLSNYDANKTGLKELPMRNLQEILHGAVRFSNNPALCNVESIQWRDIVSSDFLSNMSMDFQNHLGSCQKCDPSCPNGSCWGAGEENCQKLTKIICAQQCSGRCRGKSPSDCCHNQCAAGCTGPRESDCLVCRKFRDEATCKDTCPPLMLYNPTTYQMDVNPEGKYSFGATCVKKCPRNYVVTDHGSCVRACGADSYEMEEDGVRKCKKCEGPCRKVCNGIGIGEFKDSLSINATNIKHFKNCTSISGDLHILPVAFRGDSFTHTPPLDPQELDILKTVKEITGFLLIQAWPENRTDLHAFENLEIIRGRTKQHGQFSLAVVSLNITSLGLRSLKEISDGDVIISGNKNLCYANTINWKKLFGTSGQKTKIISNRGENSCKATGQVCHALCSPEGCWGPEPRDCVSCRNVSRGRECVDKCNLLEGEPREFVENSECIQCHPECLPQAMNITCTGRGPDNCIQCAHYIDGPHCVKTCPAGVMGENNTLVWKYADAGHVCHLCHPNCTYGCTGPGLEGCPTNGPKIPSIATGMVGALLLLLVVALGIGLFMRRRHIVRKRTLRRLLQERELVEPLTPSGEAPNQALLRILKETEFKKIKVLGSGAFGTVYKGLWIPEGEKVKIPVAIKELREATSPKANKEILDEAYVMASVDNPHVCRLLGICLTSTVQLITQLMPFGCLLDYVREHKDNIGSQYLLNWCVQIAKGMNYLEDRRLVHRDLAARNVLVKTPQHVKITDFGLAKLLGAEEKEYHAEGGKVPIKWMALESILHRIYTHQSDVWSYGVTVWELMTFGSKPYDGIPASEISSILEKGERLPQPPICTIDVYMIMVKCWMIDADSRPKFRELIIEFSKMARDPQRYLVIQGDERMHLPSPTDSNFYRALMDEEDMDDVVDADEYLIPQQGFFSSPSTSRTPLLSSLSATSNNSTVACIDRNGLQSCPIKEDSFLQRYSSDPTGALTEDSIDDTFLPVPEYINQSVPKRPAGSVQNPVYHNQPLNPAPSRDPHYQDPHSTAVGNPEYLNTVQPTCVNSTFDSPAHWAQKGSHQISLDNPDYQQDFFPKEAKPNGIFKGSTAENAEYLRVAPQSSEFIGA

SMILES	IC50 [1]	IC50 [2]	IC50 [3]	IC50 [4]	IC50 [5]	IC50 [6]
Cc1ccc(NC(=O)c2ccc3ccccc3c2)cc1Nc1nccc(-c2cccnc2)n1	> 100 µM	> 100 µM	> 100 µM	0.05 µM	> 500 µM	> 100 µM
Cc1ccc([N+](=O)[O-])cc1Nc1nccc(-c2cccnc2)n1	> 100 µM	> 500 µM	> 500 µM	> 100 µM	> 500 µM	> 100 µM
Cc1ccc(C(=O)Nc2ccc(C)c(Nc3nccc(-c4cccnc4)n3)c2)cc1	> 100 µM	> 100 µM	> 100 µM	0.01 µM	> 500 µM	> 100 µM
Cc1ccc(NC(=O)c2ccccc2)cc1Nc1nccc(-c2cccnc2)n1	–	> 500 µM	72 µM	–	> 500 µM	–
Cc1ccc(NC(=O)c2ccccc2)cc1Nc1nccc(-c2cccs2)n1	> 100 µM	> 500 µM	> 100 µM	> 10 µM	> 100 µM	> 100 µM
Cc1ccc(NC(=O)c2ccccc2)cc1Nc1nccc(-c2ccc[n+]([O-])c2)n1	> 100 µM	> 500 µM	> 100 µM	> 10 µM	> 100 µM	–
COc1ccc(NC(=O)c2ccccc2)cc1Nc1nccc(-c2cccnc2)n1	> 100 µM	> 500 µM	10 µM	> 10 µM	> 100 µM	–
Cc1ccc(NC(=O)c2ccc(Cl)cc2)cc1Nc1nccc(-c2cccnc2)n1	> 100 µM	> 100 µM	> 100 µM	0.01 µM	> 500 µM	> 100 µM
CNc1ccc(C)c(Nc2nccc(-c3cccnc3)n2)c1	> 100 µM	> 500 µM	71 µM	> 10 µM	> 100 µM	–
Cc1ccc(N(C(=O)c2ccccc2)C(=O)c2ccccc2)cc1Nc1nccc(-c2cccnc2)n1	75 µM	> 500 µM	> 100 µM	2.5 µM	> 100 µM	–
O=C(Nc1cccc(Nc2nccc(-c3cccnc3)n2)c1)c1ccccc1	> 50 µM	> 500 µM	1.2 µM	5 µM	23 µM	15.7 µM
Cc1ccc(N)cc1Nc1nccc(-c2cccnc2)n1	> 100 µM	> 500 µM	> 100 µM	> 10 µM	> 500 µM	> 100 µM
Cc1ccc(N(C)C(=O)c2ccccc2)cc1Nc1nccc(-c2cccnc2)n1	49 µM	> 500 µM	85 µM	> 100 µM	> 100 µM	–
O=C(Nc1ccc(Cl)c(Nc2nccc(-c3cccnc3)n2)c1)c1ccccc1	> 100 µM	> 500 µM	> 100 µM	0.15 µM	> 100 µM	–
COc1ccccc1C(=O)Nc1ccc(C)c(Nc2nccc(-c3cccnc3)n2)c1	> 100 µM	> 500 µM	> 100 µM	0.3 µM	> 500 µM	> 100 µM
CC(=O)Nc1ccc(C)c(Nc2nccc(-c3cccnc3)n2)c1	> 100 µM	> 500 µM	> 100 µM	50 µM	> 500 µM	> 100 µM
